Experimental data: patent publication US20070275982A1, “METHOD” (ASTRAZENECA AB, priority 2006, published 2007)
Read-outs that look alike come from different tables or passages of the source.

Test system: M. tuberculosis
Assay: MIC of drugs alone and in combination (synergy test)
Assay type: cell-based, Mycobacterium tuberculosis
Details: for change of MIC when tested together: combination Ethambutol + Isoniazid (negative control, FIG. 2); for MIC: Mycobacterium tuberculosis, drug tested alone, read-out: individual MIC
Procedure: A sulfonylurea ALS inhibitor and a triazolopyrimidine ALS inhibitor were tested alone and in combination with Rifampicin. The positive controls used were Isoniazid and Streptomycin where one finds a synergistic action. The individual MICs of Isoniazid (INH) and Streptomycin (Strep) are 0.03 and 1.0 μg/ml respectively. When used in combination, these values drop to 0.0075 and 0.12 μg/ml respectively (cf. FIG. 1). This is 4 fold and 8 fold less.
The negative control used was a combination of Ethambutol (Etham) and Isoniazid (Inh) where there is no synergistic activity. […] In. Clinical Microbiology Procedures Handbook; Vol. 1-2 by Isenberg, Henry. D. Ed Washington D.C.; American Society for Microbiology/1992; Pages 5.18.1 to 5.18.28).

[1] = combination Isoniazid + Streptomycin
[2] = combination Isoniazid + Streptomycin (positive control, FIG. 1)

SMILES | change of MIC when tested together | MIC [µg/mL] | fold drop of MIC in combination vs individual MIC [1] [fold] | MIC when used in combination [2] [µg/mL] | MIC (Rifampicin/TP experiment (FIG. 4)) [µg/mL] | fold drop of MIC in combination vs individual MIC (combination Rifampicin + SU) [fold] | fold drop of MIC in combination vs individual MIC (combination Rifampicin + TP) [fold] | MIC when used in combination (combination Rifampicin + sulphonylurea compound (SU), FIG. 3) [µg/mL] | MIC when used in combination (combination Rifampicin + triazolopyrimidine compound (TP), FIG. 4) [µg/mL]
CC[C@@H](CO)NCCN[C@@H](CC)CO [Ethambutol] | do not drop significantly |  |  |  |  |  |  |  | 
NNC(=O)c1ccncc1 [Isoniazid] | do not drop significantly | 0.03 | 4 | 0.0075 |  |  |  |  | 
CO[C@H]1/C=C/O[C@@]2(C)Oc3c(C)c(O)c4c(O)c(c(/C=N/N5CCN(C)CC5)c(O)c4c3C2=O)NC(=O)/C(C)=C\C=C\[C@H](C)[C@H](O)[C@@H](C)[C@@H](O)[C@@H](C)[C@H](OC(C)=O)[C@@H]1C [Rifampicin] |  | 0.03 |  |  | 0.015 | 8 | 4 | 0.0038 | 0.0038
[H]/N=C(/N)N[C@H]1[C@H](O)[C@@H](O)[C@H](O[C@@H]2O[C@@H](C)[C@](O)(C=O)[C@H]2O[C@@H]2O[C@@H](CO)[C@H](O)[C@@H](O)[C@@H]2NC)[C@@H](N/C(N)=N\[H])[C@@H]1O [Streptomycin] |  | 1 | 8 | 0.12 |  |  |  |  | 
